“Also recorded” adds a separate entry of the source.
Legend:
[1] = test system: human peripheral blood monocytes; assay: LID transfection of monocytes, EGFP by FACS and cell death; assay type: cell-based; details: for Percentages of cells transfected (ranking): FIG. 7a
Description: (§1) Lipopolyplex (LID) transfection complexes comprising lipid (L), peptide (in the form of a peptide derivative as described above) (I) and DNA (D) were prepared. The lipid component was Lipofectin or Lipofectamine 2000 (Invitrogen Ltd, Paisley, UK), the peptide component was a synthesized peptide A to F, 6 or 6J derivative, as described in Table 7 above, and the DNA was the plasmid pEGFP-N1 (Clontech, BD Biosciences, Palo Alto, Calif.)
(§2) component (Lipofectin or Lipofectamine 2000) was maintained at a constant proportion, by weight, relative to DNA of 0.75:1. Prior to making transfection complexes, in method A the lipid component was diluted to a concentration of 15 μg per ml, the peptide was prepared at 0.1 mg/ml and the DNA (plasmid pEGFP-N1, BD Biosciences, Cowley, UK, prepared using EndoFree plasmid kit, Qiagen Ltd, Crawley, UK) was at 10 μg per ml. All dilutions were performed with OptiMEM reduced serum tissue culture medium (Life Technologies Ltd, Paisley, UK). In method B prior to making transfection complexes the lipid component was diluted to a concentration of 30 μg per ml, the peptide was prepared at 0.1 mg/ml and the DNA (plasmid pEGFP-N1, BD Biosciences, Cowley, UK, prepared using EndoFree plasmid kit, Qiagen Ltd, Crawley, UK) was at […]. All dilutions were performed in serum-free RPMI.
(§3) Transfection complexes were made by mixing the components in the order 1) lipid (50 μl) then 2) peptide (70 μl) and finally 3) DNA (50 μl), then diluting with OptiMEM or serum free RPMI, as appropriate, to a concentration relative to the DNA component of 2 μg DNA per […] (OptiMEM) or 500 μl (RPMI).
(§4) For transfection of monocytes, peripheral blood monocytes were prepared using Lymphoprep centrifugation and CD14 bead selection as described in the method for preparation of monocyte derived dendritic cells in Example 1(v) above. These cells were then transfected as described as described for dendritic cells except that transfection of the monocytes (and also of day 3 or day 4 immature dendritic cells) was carried out in solution.

[2] = test system: human monocyte-derived immature dendritic cells; assay: LID (lipid-peptide-DNA) transfection of immature dendritic cells, EGFP by FACS and 7AAD cell death; assay type: cell-based; details: for Transfection efficiency, % positive cells: day 4 cells; for Transfection efficiency (percentage cells positive for EGFP) relative to peptide 6: day 6 cells, LID vector
Description: as §1
In the transfection complex, peptide component to DNA charge ratios (+/−) were used at 1.5:1, 3:1 and 7:1. The lipid
as §2, §3
Immature day 6 dendritic cells, obtained as described in Example 1(v) above, were plated into a 48 well plate at 5×10^4 cells per well in complete media and allowed to settle for 3 hours at 37° C. 300 μl or 500 μl (as appropriate) of the transfection complex obtained as described above was added to each well. The transfection complex was applied to cells within 5 minutes of preparation. Transfection incubations were performed at 37° C. for 4 hours, after which the medium was replaced with complete medium with cytokines for 24 hours. Cells were harvested by scraping, spun down and resuspended in 300 μl PBS for FACS analysis to determine the percentage of cells positive for the reporter gene EGFP (Enhanced Green Fluorescent Protein). Each transfection was performed in triplicate wells.
as §4

N2a (Neuro2A) cells = assay: LID transfection, luciferase reporter assay, N2a; assay type: cell-based, mouse; details: LID with lipofectin
Description: (§5) Transfection complexes comprising lipid, peptide and DNA were prepared. The lipid component was lipofectin (Invitrogen Ltd, Paisley, UK), the peptide component was a peptide A to F, 6 or 6J derivative, as described above, and the DNA was the plasmid pCILuc (Promega UK Ltd, Southampton). In the transfection complex, peptide to DNA charge ratios (+/−) were used at 3:1, 5:1 and 7:1. The lipid component was maintained at a constant proportion, by weight, relative to DNA of 0.75:1. Prior to making transfection complexes the lipid component was diluted to a concentration of 15 μg or 30 μg per ml, the peptide was prepared at 0.1 mg/ml and the DNA was at 40 μg per ml. All dilutions were performed with OptiMEM reduced serum tissue culture medium (Life Technologies). Transfection complexes were made by mixing of components in the order 1) lipid then 2) peptide and finally 3) DNA, then diluted with OptiMEM to a concentration relative to the DNA component of 0.25 μg DNA per […]
(§6) For transfection of these types of cell i.e. HMEC, HAEo-, N2a and HepG2, 1×10^4 cells were seeded overnight in 96 well plate. 200 μl of the suspension of the transfection complex prepared according to (b) above was added to each well. The suspension was applied to cells within 5 minutes of preparation. […]

[3] = test system: human monocyte-derived immature dendritic cells; assay: Whole cell flow cytometry (FACS) of phage clone binding; details: day 4 cells, several donors; versus phage clone with no insert
Description: 5×10^4 Dendritic cells and 2×10^11 of an individual purified phage clone were each blocked at 4° C. for 30 mins in 1 ml MBSA (2% Marvel, 5% BSA in PBS), with mixing on a turntable. The dendritic cells were spun down at 2000 rpm, a gentle centrifugation to pellet cells without lysing them, for 5 min at 4° C., and the pellet resuspended in the blocked phage solution. The mixture was held on ice for 30 min to allow the phage to bind, before spinning down the cells, removing the supernatant and washing the cells with 1 ml 1% BSA, 0.05% Tween20-PBS. The cells were spun again, the supernatant removed, and the cells fixed in 1 ml 1% paraformaldehyde for 30 min on ice. […] The cells were incubated with the antibody on ice for 30 min before spinning down, washing twice in 0.05% Tween20, 1% BSA PBS, resuspending in […] and measuring the percentage cells positive for FITC by FACS analysis.
Alternatively, 5×10^4 dendritic cells were mixed with 2×10^11 of individual phage clones as described for panning of the phage library. The mixture of phage and DC suspensions was kept on ice for 30 min before cells were centrifuged to remove the supernatant and washed with 1 ml 1% BSA, 0.05% Tween 20-PBS. The cells were again pelleted by centrifugation, then fixed for flow cytometry analysis by resuspending in 1 ml of 1% paraformaldehyde for 30 min on ice. […] The cells were incubated with the antibody on ice for 30 min then pelleted by centrifugation, washed twice in 0.05% Tween 20, 1% BSA PBS and resuspended in 200 μl PBS. The percentage of FITC-positive cells was determined by flow cytometry using a Epics XL flow cytometer (Beckman Coulter, High Wycombe, UK.).

HAEo- cells = assay: LID transfection, luciferase reporter assay, HAEo-; assay type: cell-based, human; details: LID with lipofectin
Description: as §5, §6

[4] = lipofectin, lipid:DNA 0.75:1, peptide:DNA 7:1 (FIG. 5a)

Substance: APSNSTA (Synthetic peptide binding to dendritic cells)
- Percentages of cells transfected (ranking) [1]: highest percentages of cells transfected
- Transfection efficiency, % positive cells [2, 4]: 11%
- Transfection efficiency (percentage cells positive for EGFP) relative to peptide 6 [2]: equal to those of peptide 6
- Transfection efficiency (luciferase activity per mg protein) relative to peptide 6 (N2a (Neuro2A) cells): less than half that value
- Percentage of cells positive for bound phage (FITC) by FACS [3]: binding to a higher percentage of cells than a phage clone bearing no insert; also recorded: bind to dendritic cells in highest amounts; also recorded: binding to dendritic cells in highest amounts
- Transfection efficiency (luciferase activity per mg protein) relative to peptide 6 (HAEo- cells): one and a half times that using peptide 6

Substance: SHVKLNS (Synthetic peptide binding to dendritic cells)
- Percentages of cells transfected (ranking) [1]: highest percentages of cells transfected
- Percent positive for EGFP ([1]; combined with Lipofectin): 6%
- Transfection efficiency, % positive cells [2, 4]: 17%
- Transfection efficiency, % positive cells ([2]; no lipid): less than 1%
- Transfection efficiency (percentage cells positive for EGFP) relative to peptide 6 [2]: approximately one and a half times that of the positive control, peptide 6
- Transfection efficiency (luciferase activity per mg protein) relative to peptide 6 (N2a (Neuro2A) cells): equal to those seen with peptide 6
- Percentage of cells positive for bound phage (FITC) by FACS [3]: binding to a higher percentage of cells than a phage clone bearing no insert; also recorded: bind to dendritic cells in highest amounts; also recorded: binding to dendritic cells in highest amounts
- Transfection efficiency (luciferase activity per mg protein) relative to peptide 6 (HAEo- cells): approximately double that seen with peptide 6

— patent US7820624B2, “Peptide ligands” (ICH Productions Limited, priority 2003, dated 2010)
